Reference: US9803021B2 (The Regents of the University of California, priority 2012, dated 2017)
Entries after “also recorded” stand apart in the source; their conditions may differ.

How the values were obtained:
[1] = tested on: 8226/S; experiment: MTS assay (cell viability / metabolic activity); format: cell-based, human; details: 8226/S (RPMI 8226), 3 days or 4 days
Procedure: (§1) Percent cell viability was determined using MTS solution (Promega, Madison, Wis.) by measuring absorbance at 490 nm using a Synergy HT Multi-Detection Microplate Reader (BioTek Instruments, Inc., Winooski, Vt.) with untreated cells being 100%. GraphPad Prism (GraphPad Software Inc., La Jolla, Calif.) was used to analyze data by non-linear regression with the log (inhibitor) vs. the response with a variable slope with the IC50 calculated. Data are expressed as a percentage of maximum metabolic activity. The experiments were performed in triplicate.
(§2) Metabolic activity was determined using MTS solution (Promega) by measuring absorbance at 490 nm using a Synergy HT Multi-Detection Microplate Reader (BioTek Instruments Inc.) with untreated cells being 100%. GraphPad Prism (GraphPad Software Inc.) was used to analyze data by non-linear regression with the log (inhibitor) versus the response with a variable slope. Data are expressed as a percentage of maximum metabolic activity. The experiments were performed in triplicate.

[2] = tested on: ANBL-6; experiment: MTS assay (cell viability / metabolic activity); format: cell-based, human; details: ANBL-6, 3 days or 7 days
Procedure: as §1, §2

[3] = tested on: MM1-144; experiment: MTS assay (cell viability / metabolic activity); format: cell-based, human; details: MM144 (MM1-144), 3 days
Procedure: as §1, §2

[4] = tested on: OCI-My5; experiment: MTS assay (cell viability / metabolic activity); format: cell-based, human; details: OCI-My5, 3 days
Procedure: as §1, §2

[5] = tested on: U266; experiment: MTS assay (cell viability / metabolic activity); format: cell-based, human; details: U266, 3 days
Procedure: as §1, §2

[6] = tested on: ANBL-6; experiment: Senescence induced β-gal activity at pH 6 (C12FDG, flow cytometry); format: cell-based, human; details: ANBL-6, 1 nM, 3 days (data not shown)
Procedure: (§3) Senescence induced β-galactosidase (β-gal) activity was detected as described previously (Debacq-Chainiaux et al. (2009) Nature Protocols, 4: 1798-1806). […] To induce lysosomal alkalinization, cells were incubated in 100 nM bafilomycin A1 (Sigma) for 1 h. Then cells were incubated for 30 min with the β-gal substrate dodecanoylaminofluorescein di-β-D-galactopyranoside (C12FDG; Invitrogen), which becomes fluorescent after cleavage by β-gal. After washing twice with cold PBS, cells were resuspended in cold PBS containing 1 mM phenylethyl thiogalactoside (PETG), a β-gal inhibitor, and analyzed by flow cytometry for C12-fluorescein.
(§4) Intracellular β-galactosidase (β-gal) activity was measured as an indicator for replicative senescence. […] After treatment, cells were incubated with 100 nM bafilomycin A1 (Sigma) for 1 hour to induce lysosomal alkalinization. Then cells were incubated for 30 minutes with the 33 μM of β-gal substrate dodecanoylaminofluorescein di-β-D-galactopyranoside (C12FDG; Invitrogen), which becomes fluorescent after cleavage to C12-fluorescein. After washing twice with cold PBS, cells were resuspended in cold PBS containing 1 mM phenylethyl thiogalactoside (PETG), a β-gal inhibitor, and analyzed by flow cytometry for C12-fluorescein.

[7] = tested on: MM1-144; experiment: as above; format: cell-based, human; details: MM1-144, 1 nM, 3 days
Procedure: as §3, §4

[8] = tested on: U266; experiment: as above; format: cell-based, human; details: U266, 1 nM, 3 days
Procedure: as §3, §4

[9] = tested on: MM1-144; experiment: Ki-67 stain (flow cytometry); format: cell-based, human; details: MM1-144, 500 pM, 3 days
Procedure: (§5) Senescence induced β-galactosidase (β-gal) activity was detected as described previously (Debacq-Chainiaux et al. (2009) Nat. Protoc., 4: 1798-1806) and in Supplemental methods. To detect Ki-67 protein, cells were stained and analyzed by flow cytometry as described in Supplemental methods.
(§6) After treatment, cells were fixed with methanol on ice and then incubated with anti-Ki-67 rabbit IgG (Abcam). Cells were then stained with anti-rabbit IgG-FITC (Sigma) and analyzed by flow cytometry.

[10] = tested on: NCI-H929; experiment: Ki-67 stain (flow cytometry); format: cell-based, human; details: NCI-H929, 500 pM, 3 days
Procedure: as §5, §6

[11] = tested on: ppRb in MM1-144; experiment: Western blot of ppRb; format: cell-based, human; details: MM1-144, 1 nM, 48 hours
Procedure: (§7) Cells were lysed using RIPA buffer (50 mM Tris HCl pH 8, 150 mM NaCl, 1% NP-40, 0.5% sodium deoxycholate, 0.1% SDS) containing a protease inhibitor cocktail (Roche Applied Science, Indianapolis, Ind.). The cytosolic fractions were reduced with β-mercaptoethanol and separated by SDS-PAGE. Following transfer to nitrocellulose membrane (Whatman, Piscataway, N.J.) and blocking, samples were incubated with the following primary rabbit antibodies: anti-IRF4 (Epitomics, Berlingham, Calif.), anti-glyceraldehyde-3-phosphate dehydrogenase (GAPDH; Sigma), anti-ppRb Ser807/811 (Santa Cruz Biotechnology, Santa Cruz, Calif.), anti-cyclin D (Millipore, Billerica, Mass.), or anti-β tubulin (Abcam, Cambridge, Mass.). Secondary anti-rabbit IgG-HRP (GE Healthcare, Billerica, Mass.) was used and the blots were developed using enhanced chemiluminescence (ECL; Thermo Scientific, Waltham, Mass.).
(§8) Cells were lysed using RIPA buffer (50 mM Tris-HCl pH 8, 150 mM NaCl, 1% NP-40, 0.5% sodium deoxycholate, 0.1% SDS) containing a protease inhibitor cocktail (Roche Applied Science). The cytosolic fractions were reduced with β-mercaptoethanol and separated by SDS PAGE. Following transfer to nitrocellulose membrane (Whatman) and blocking, samples were incubated with the following primary rabbit antibodies: anti-IRF-4 (Epitomics), anti-glyceraldehyde-3-phosphate dehydrogenase (GAPDH; Sigma), or anti-ppRb Ser807/811 (Santa Cruz Biotechnology). Secondary anti-rabbit IgG-HRP (GE Healthcare) was used and the blots were developed using enhanced chemiluminescence (ECL; Thermo Scientific). Films were imaged using a Multilmage™ Light Cabinet (Alpha Innotech Corp.) and analyzed using NIH Image J. Bands were normalized to a GAPDH loading control and expressed as percentage band intensity of untreated cells.

[12] = tested on: ppRb in NCI-H929; experiment: Western blot of ppRb; format: cell-based, human; details: NCI-H929, 1 nM, 48 hours
Procedure: as §7, §8

[13] = tested on: ppRb in OCI-My5; experiment: Western blot of ppRb; format: cell-based, human; details: OCI-My5, 1 nM, 48 hours
Procedure: as §7, §8

[14] = tested on: IRF-4 in U266; experiment: Western blot of IRF-4; format: cell-based, human; details: U266, 1 nM, 2 days
Procedure: as §7
Cells were lysed using RIPA buffer (50 mM Tris-HCl pH 8, 150 mM NaCl, 1% NP-40, 0.5% sodium deoxycholate, 0.1% SDS) containing a protease inhibitor cocktail (Roche Applied Science). The cytosolic fractions were reduced with β-mercaptoethanol and separated by SDS PAGE. […] Films were imaged using a Multilmage™ Light Cabinet (Alpha Innotech Corp.) and analyzed using NIH Image J. Bands were normalized to a GAPDH loading control and expressed as percentage band intensity of untreated cells.

[15] = tested on: U266 tumors; experiment: U266 xenograft model in NSG mice; details: U266 s.c.
Procedure: For U266 tumors, NOD scid IL-2 receptor gamma chain knock out (NSG) mice were injected subcutaneously with 1×10^7 U226 cells and treated on days 14, 16 and 18 with 100 μg of the indicated proteins. […] Survival was monitored as well as the size of the tumors.
For U266 tumors, experiments were carried out as described above except that NOD-scid IL2rγ^null (NSG) mice were used.

Substance: anti-CD138-IFNα: Fusion protein: murine B-B4 anti-CD138 variable regions, human IgG1κ constant regions, human IFNα2 fused to the antibody C-terminus via SGGGGS linker
- cell viability / growth inhibition (MTS assay), result in words [1]: intermediate effect; also recorded: more effective at decreasing cell viability than IFNα alone
- cell viability / growth inhibition (MTS assay), result in words ([1]; listed as Anti-CD138-IFNα2): some effect was observed only at high concentrations
- cell viability / growth inhibition (MTS assay), result in words [2]: more effective than untargeted anti-CD20-IFNα; also recorded: more effective at decreasing cell viability than IFNα alone
- cell viability / growth inhibition (MTS assay), result in words ([2]; listed as Anti-CD138-IFNα): more effective than anti-CD138-mutIFNα
- cell viability / growth inhibition (MTS assay), result in words ([2]; listed as Anti-CD138-IFNα2): more effective than recombinant IFNα2
- cell viability / growth inhibition (MTS assay), result in words [3]: more effective than untargeted anti-CD20-IFNα; also recorded: more effective at decreasing cell viability than IFNα alone
- cell viability / growth inhibition (MTS assay), result in words ([3]; listed as Anti-CD138-IFNα2): more effective than recombinant IFNα2
- cell viability / growth inhibition (MTS assay), result in words [4]: more effective than untargeted anti-CD20-IFNα; also recorded: more effective at decreasing cell viability than IFNα alone
- cell viability / growth inhibition (MTS assay), result in words ([4]; listed as Anti-CD138-IFNα2): more effective than recombinant IFNα2
- cell viability / growth inhibition (MTS assay), result in words [5]: more effective than untargeted anti-CD20-IFNα; also recorded: more effective at decreasing cell viability than IFNα alone
- β-gal activity at pH 6 (senescence), result in words [6]: no increases
- β-gal activity at pH 6 (senescence), result in words [7]: increases in β-gal activity
- β-gal activity at pH 6 (senescence), result in words [8]: no increase under any conditions
- Ki-67 negative (non-dividing) cells, result in words [9]: more Ki-6T cells as compared to untreated control
- Ki-67 negative (non-dividing) cells, result in words [10]: more Ki-6T cells as compared to untreated control
- ppRb levels (Western blot) [11]: decreased
- ppRb levels (Western blot) [12]: decreased
- ppRb levels (Western blot) [13]: decreased
- IRF-4 expression (Western blot) [14]: decrease was similar
- survival / protection against tumor growth, result in words ([15]; 100 μg on days 14, 16, 18): much more effective than untargeted anti-DNS-IFNα
- survival / protection against tumor growth, result in words ([15]; 100 μg on days 14, 16, 18, listed as anti-CD138-IFNα2): highest levels of protection
